Earlier results as cited in patent publication US20240139293A1, “Compositions and Methods for Enhancing Anti-Viral Therapies” (XORTX THERAPEUTICS, INC., priority 2021, published 2024).

Tested on: SARS-CoV-2
Details: cited study: SARS-CoV-2 replication in vivo and in vitro

For `CCCN(CCC)S(=O)(=O)c1ccc(C(=O)O)cc1` [probenecid], the “viral load due to Coronavirus” value is given as “can decrease viral load”.
